According to US20250353855A1, “HETEROCYCLIC AND HETEROARYL COMPOUNDS FOR TREATING HUNTINGTON'S DISEASE” (PTC THERAPEUTICS, INC., priority 2022, published 2025):
Where two headings read alike, the source gives them in different places. Each block holds one compound with its values, some of them ahead of it.

System: Endogenous Huntingtin Protein
Assay: Endogenous Huntingtin Protein Assay (ELISA-based MSD electrochemiluminescence)
Type: cell-based
Details: MSD plates coated with MW1 (expanded polyglutamine) or MAB2166 capture antibody, lysates
In short: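 Electrochemiluminescence sandwich ELISA for endogenous huntingtin: capture with MW1 (expanded polyglutamine) or MAB2166 antibody at 1 μg/mL, samples incubated overnight at 4° C. Detection with rabbit monoclonal #5656S then goat anti-rabbit SULFO-TAG antibody (each 0.25 μg/mL, 1 h room temperature), read on MSD imager.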

IC50 (read-out: IC50): < 0.1 µM
SMILES: Cc1ccc2cc(-c3cc4c(nn3)N([C@H]3CC(C)(C)NC(C)(C)[C@H]3F)CC4)c(O)cc2n1 [Cpd 76, 6-{7-[(3S,4S)-3-fluoro-2,2,6,6-tetramethylpiperidin-4-yl]-6,7-dihydro-5H-pyrrolo[2,3-c]pyridazin-3-yl}-2-methylquinolin-7-ol]

IC50 (read-out: IC50): < 0.1 µM
SMILES: COc1nc2cc(O)c(-c3cc4c(nn3)N([C@H]3CC(C)(C)NC(C)(C)[C@H]3F)CC4)cc2s1 [Cpd 97, 6-{7-[(3S,4S)-3-fluoro-2,2,6,6-tetramethylpiperidin-4-yl]-6,7-dihydro-5H-pyrrolo[2,3-c]pyridazin-3-yl}-2-methoxy-1,3-benzothiazol-5-ol]

IC50 (read-out: IC50): < 0.1 µM
SMILES: Cc1ncc2cc(O)c(-c3cc4ccn([C@H]5CC(C)(C)NC(C)(C)[C@H]5F)c4nn3)cc2n1 [Cpd 39, 7-{7-[(3S,4S)-3-fluoro-2,2,6,6-tetramethylpiperidin-4-yl]-7H-pyrrolo[2,3-c]pyridazin-3-yl}-2-methylquinazolin-6-ol]

IC50 (read-out: IC50): < 0.1 µM
SMILES: Cc1nc2cc(O)c(-c3cc4c(nn3)N([C@@H]3CCNC(C)(C)[C@@H]3F)CC4)cc2o1 (single isomer, unassigned) [Cpd 64, 6-{7-[(3R,4R)-3-fluoro-2,2-dimethylpiperidin-4-yl]-6,7-dihydro-5H-pyrrolo[2,3-c]pyridazin-3-yl}-2-methyl-1,3-benzoxazol-5-ol or 6-{7-[(3S,4S)-3-fluoro-2,2-dimethylpiperidin-4-yl]-6,7-dihydro-5H-pyrrolo[2,3-c]pyridazin-3-yl}-2-methyl-1,3-benzoxazol-5-ol]

IC50 (read-out: IC50): < 0.1 µM
SMILES: Cn1nc2cc(O)c(-c3cc4c(nn3)N([C@H]3CC(C)(C)NC(C)(C)[C@H]3F)CC4)cc2n1 [Cpd 88, 6-{7-[(3S,4S)-3-fluoro-2,2,6,6-tetramethylpiperidin-4-yl]-6,7-dihydro-5H-pyrrolo[2,3-c]pyridazin-3-yl}-2-methyl-2H-benzotriazol-5-ol]

IC50 (read-out: IC50): < 0.1 µM
SMILES: Cc1ncc2cc(O)c(-c3cc4c(nn3)N([C@H]3CC(C)(C)NC(C)(C)[C@H]3F)CC4)cc2n1 [Cpd 87, 7-{7-[(3S,4S)-3-fluoro-2,2,6,6-tetramethylpiperidin-4-yl]-6,7-dihydro-5H-pyrrolo[2,3-c]pyridazin-3-yl}-2-methylquinazolin-6-ol]

IC50 (read-out: IC50): < 0.1 µM
SMILES: Cc1nc2cc(O)c(-c3cc4ccn([C@H]5CC(C)(C)NC(C)(C)[C@H]5F)c4nn3)cc2s1 [Cpd 4, 6-{7-[(3S,4S)-3-fluoro-2,2,6,6-tetramethylpiperidin-4-yl]-7H-pyrrolo[2,3-c]pyridazin-3-yl}-2-methyl-1,3-benzothiazol-5-ol]

IC50 (read-out: IC50): < 0.1 µM
SMILES: Cc1ccc2cc(O)c(-c3cc4ccn([C@H]5CC(C)(C)NC(C)(C)[C@H]5F)c4nn3)cc2n1 [Cpd 31, 7-{7-[(3S,4S)-3-fluoro-2,2,6,6-tetramethylpiperidin-4-yl]-7H-pyrrolo[2,3-c]pyridazin-3-yl}-2-methylquinolin-6-ol]

IC50 (read-out: IC50): < 0.1 µM
SMILES: CC1(C)C[C@H](n2ccc3cc(-c4cc5cc(F)cnc5cc4O)nnc32)[C@H](F)C(C)(C)N1 [Cpd 94, 3-fluoro-6-{7-[(3S,4S)-3-fluoro-2,2,6,6-tetramethylpiperidin-4-yl]-7H-pyrrolo[2,3-c]pyridazin-3-yl}quinolin-7-ol]

Further lines, the compound ahead of its results:

SMILES: Cc1nc2cc(O)c(-c3cc4ncn([C@H]5C[C@@H]6CC[C@@H](N6)[C@H]5F)c4nn3)cc2s1 (single isomer, unassigned) [Cpd 9, 6-{7-[(1R,2R,3S,5S)-2-fluoro-8-azabicyclo[3.2.1]octan-3-yl]-7H-imidazo[4,5-c]pyridazin-3-yl}-2-methyl-1,3-benzothiazol-5-ol or 6-{7-[(1S,2S,3R,5R)-2-fluoro-8-azabicyclo[3.2.1]octan-3-yl]-7H-imidazo[4,5-c]pyridazin-3-yl}-2-methyl-1,3-benzothiazol-5-ol]
IC50 (read-out: IC50): < 0.1 µM

SMILES: Cc1nc2cc(O)c(-c3cc4ccn([C@@H]5CCNC(C)(C)[C@@H]5F)c4nn3)cc2o1 [Cpd 20, 6-{7-[(3R,4R)-3-fluoro-2,2-dimethylpiperidin-4-yl]-7H-pyrrolo[2,3-c]pyridazin-3-yl}-2-methyl-1,3-benzoxazol-5-ol]
IC50: < 0.1 µM

SMILES: CC1(C)C[C@H](n2ccc3cc(-c4cc5ccccc5cc4O)nnc32)[C@H](F)C(C)(C)N1 [Cpd 28, 3-{7-[(3S,4S)-3-fluoro-2,2,6,6-tetramethylpiperidin-4-yl]-7H-pyrrolo[2,3-c]pyridazin-3-yl}naphthalen-2-ol]
IC50 (read-out: IC50): < 0.1 µM

SMILES: COc1nc2cc(O)c(-c3cc4ccn([C@H]5CC(C)(C)NC(C)(C)[C@H]5F)c4nn3)cc2o1 [Cpd 25, 6-{7-[(3S,4S)-3-fluoro-2,2,6,6-tetramethylpiperidin-4-yl]-7H-pyrrolo[2,3-c]pyridazin-3-yl}-2-methoxy-1,3-benzoxazol-5-ol]
IC50: < 0.1 µM

SMILES: Cc1cnc2cc(-c3cc4ccn([C@H]5CC(C)(C)NC(C)(C)[C@H]5F)c4nn3)c(O)cc2c1 [Cpd 30, 7-{7-[(3S,4S)-3-fluoro-2,2,6,6-tetramethylpiperidin-4-yl]-7H-pyrrolo[2,3-c]pyridazin-3-yl}-3-methylquinolin-6-ol]
IC50 (read-out: IC50): < 0.1 µM

SMILES: CCc1nc2cc(-c3cc4ccn([C@H]5CC(C)(C)NC(C)(C)[C@H]5F)c4nn3)c(O)cc2s1 [Cpd 14, 2-ethyl-5-{7-[(3S,4S)-3-fluoro-2,2,6,6-tetramethylpiperidin-4-yl]-7H-pyrrolo[2,3-c]pyridazin-3-yl}-1,3-benzothiazol-6-ol]
IC50 (read-out: IC50): < 0.1 µM
